Reference: patent US5510331A, “Antihypertensive peptides” (Roussel UCLAF, priority 1990, dated 1996)
Where a SMILES comes first, the peptide text is derived from it. Bridges are numbered along the chain shown (N, C = ends). [ ]: non-standard residue; d: D form. d2Nal = N[C@H](Cc1ccc2ccccc2c1)C(=O)O; Nle = CCCC[C@H](N)C(=O)O

biological target: endotheline receptor; assay: Activity on the endotheline receptor: displacement of 125I endotheline from rat brain membrane preparation; type: binding; conditions: membrane preparation from rat posterior cortex and brain, 25° C., 60 minutes, 7 concentrations, read-out: IC50 (50% inhibiting concentration; concentration necessary to displace 50% of the specific radioactivity fixed on the receptor)
Experimental: A membrane preparation was made from rat posterior cortex and brain and the tissue was ground with a POLYTRON in a 50 mM Tris buffer pH=7.4. After 30 minutes at 25° C. (W.B.), the homogenate was centrifuged at 30,000 g for 15 minutes (2 centrifugations with intermediate taking up in the Tris buffer pH 7.4). The deposits were suspended in an incubation buffer (Tris 25 mM, pepstatine A 5 microg/ml, aprotinine 3 microg/ml, PMSF 0.1 mM, EDTA 3 mM, EGTA 1 mM pH 7.4). 2 ml aliquots were distributed in hemolysis tubes and ^125 I endotheline (approximately 50,000 dpm/tube) and the product to be studied were added. The product was first tested at 3×10^-5 M in triplicate. When the product tested displaced more than 50% of radioactivity linked specifically to the receptor, it was tested again in a range of 7 concentrations to determine the concentration which inhibited the radioactivity linked specifically to the receptor by 50%. In this way, the 50% inhibiting concentration was determined.
The non-specific bond was determined by the addition of endotheline at 10^-6 M (in triplicate) and the deposits were incubated at 25° C. for 60 minutes, put in a water-bath at 0° C. for 5 minutes, filtered under reduced pressure and rinsed with a Tris buffer 7.4 pH. The radioactivity was counted in the presence of scintillating Triton. The result was expressed directly as a 50% inhibiting concentration (IC50), or the concentration of product studied expressed in nM necessary to displace 50% of the specific radioactivity fixed on the receptor studied.

Row | SMILES | IC50
1 | CC[C@H](C)[C@H](NC(=O)[C@H](CC(=O)O)NC(=O)[C@H](CC(C)C)NC(=O)[C@H](Cc1c[nH]cn1)NC(=O)[C@H](CS)NC(=O)[C@H](Cc1ccc(O)cc1)NC(=O)CNC(=O)[C@H](CC(N)=O)NC(=O)[C@@H]1CCCN1C(=O)CNC(=O)[C@H](C)NC(=O)[C@H](CC(C)C)NC(=O)[C@@H](N)CS)C(=O)N[C@H](C(=O)N[C@@H](Cc1c[nH]c2ccccc12)C(=O)O)[C@@H](C)CC [Example 10] (H-CLAGPNGYCHLDIIW-OH) | 620 nM
2 | CCCC[C@@H]1NC(=O)[C@H](CC(C)C)NC(=O)[C@H](CO)NC(=O)[C@H](CO)NC(=O)[C@@H]2CSSC[C@H](NC(=O)[C@H](CCC(=O)O)NC(=O)[C@H](CCCCN)NC(=O)[C@H](CC(=O)O)NC1=O)C(=O)N[C@@H](C(C)C)C(=O)N[C@@H](Cc1ccc(O)cc1)C(=O)N[C@@H](Cc1ccccc1)C(=O)N[C@H](C(=O)N[C@@H](Cc1c[nH]cn1)C(=O)N[C@@H](CC(C)C)C(=O)N[C@@H](CC(=O)O)C(=O)N[C@H](C(=O)N[C@H](C(=O)N[C@H](Cc1ccc3ccccc3c1)C(=O)O)[C@@H](C)CC)[C@@H](C)CC)CSSC[C@H](N)C(=O)N[C@@H](CO)C(=O)N2 [Example 3, (Nle-7)-DiNaphtylalanine-21-ET1 derivative] (H-CSCSSL[Nle]DKECVYFCHLDII[d2Nal]-OH; disulfide 1-15, 3-11) | 2 nM
3 | CC[C@H](C)[C@H](NC(=O)[C@H](CC(=O)O)NC(=O)[C@H](CC(C)C)NC(=O)[C@H](Cc1c[nH]cn1)NC(=O)[C@@H]1CSSC[C@H](N)C(=O)N[C@@H]([C@@H](C)O)C(=O)N[C@H]2CSSC[C@H](NC(=O)[C@H](CCC(=O)O)NC(=O)[C@H](CCCCN)NC(=O)[C@H](CC(=O)O)NC(=O)[C@H]([C@@H](C)O)NC(=O)[C@H](CCSC)NC(=O)[C@H](CC(=O)O)NC(=O)[C@H](CCCCN)NC2=O)C(=O)N[C@@H](C(C)C)C(=O)N[C@@H](Cc2ccc(O)cc2)C(=O)N[C@@H](Cc2ccccc2)C(=O)N1)C(=O)N[C@H](C(=O)N[C@@H](Cc1c[nH]c2ccccc12)C(=O)O)[C@@H](C)CC [Example 11] (H-CTCKDMTDKECVYFCHLDIIW-OH; disulfide 1-15, 3-11) | 1.3 nM
4 | CC[C@H](C)[C@H](NC(=O)[C@H](CC(=O)O)NC(=O)[C@H](CCCNC(=N)N)NC(=O)[C@H](Cc1c[nH]cn1)NC(=O)[C@@H]1CSSC[C@H](N)C(=O)N[C@@H]([C@@H](C)O)C(=O)N[C@H]2CSSC[C@H](NC(=O)[C@H](CCC(=O)O)NC(=O)[C@H](CCCCN)NC(=O)[C@H](CC(=O)O)NC(=O)[C@H]([C@@H](C)O)NC(=O)[C@H](CCSC)NC(=O)[C@H](CC(=O)O)NC(=O)[C@H](CCCCN)NC2=O)C(=O)N[C@@H](CC(C)C)C(=O)N[C@@H](Cc2ccc(O)cc2)C(=O)N[C@@H](Cc2ccccc2)C(=O)N1)C(=O)N[C@H](C(=O)N[C@@H](Cc1c[nH]c2ccccc12)C(=O)O)[C@@H](C)CC [Example 15] (H-CTCKDMTDKECLYFCHRDIIW-OH; disulfide 1-15, 3-11 (inferred); N-terminus assumed) | 1.8 nM
5 | CC[C@H](C)[C@H](NC(=O)[C@H](CC(=O)O)NC(=O)[C@H](CCC(N)=O)NC(=O)[C@H](Cc1c[nH]cn1)NC(=O)[C@@H]1CSSC[C@H](N)C(=O)N[C@@H](CO)C(=O)N[C@H]2CSSC[C@H](NC(=O)[C@H](CCC(=O)O)NC(=O)[C@H](CCCCN)NC(=O)[C@H](CC(=O)O)NC(=O)[C@H](CCSC)NC(=O)[C@H](CC(C)C)NC(=O)[C@H](CO)NC(=O)[C@H](CO)NC2=O)C(=O)N[C@@H](CC(C)C)C(=O)N[C@@H](Cc2ccc(O)cc2)C(=O)N[C@@H](Cc2ccccc2)C(=O)N1)C(=O)N[C@H](C(=O)N[C@@H](Cc1c[nH]c2ccccc12)C(=O)O)[C@@H](C)CC [Example 13] (H-CSCSSLMDKECLYFCHQDIIW-OH; disulfide 1-15, 3-11) | 3.5 nM
6 | CCCC[C@@H]1NC(=O)[C@H](CC(C)C)NC(=O)[C@H](CO)NC(=O)[C@H](CO)NC(=O)[C@@H]2CSSC[C@H](NC(=O)[C@H](CCC(=O)O)NC(=O)[C@H](CCCCN)NC(=O)[C@H](CC(=O)O)NC1=O)C(=O)N[C@@H](C(C)C)C(=O)N[C@@H](Cc1ccc(O)cc1)C(=O)N[C@@H](Cc1ccccc1)C(=O)N[C@H](C(=O)N[C@@H](Cc1c[nH]cn1)C(=O)N[C@@H](CCC(N)=O)C(=O)N[C@@H](CC(=O)O)C(=O)N[C@H](C(=O)N[C@H](C(=O)N[C@@H](Cc1c[nH]c3ccccc13)C(=O)O)[C@@H](C)CC)[C@@H](C)CC)CSSC[C@H](N)C(=O)N[C@@H](CO)C(=O)N2 [Example 12] (H-CSCSSL[Nle]DKECVYFCHQDIIW-OH; disulfide 1-15, 3-11) | 2.3 nM
7 | CCCC[C@@H]1NC(=O)[C@H](CC(C)C)NC(=O)[C@H](CO)NC(=O)[C@H](CO)NC(=O)[C@@H](N)CSSC[C@@H](C(=O)N[C@@H](Cc2c[nH]cn2)C(=O)N[C@@H](CC(C)C)C(=O)N[C@@H](CC(=O)O)C(=O)N[C@H](C(=O)N[C@H](C(=O)N[C@@H](Cc2c[nH]c3ccccc23)C(=O)O)[C@@H](C)CC)[C@@H](C)CC)NC(=O)[C@H](CCC(=O)O)NC(=O)[C@H](CCCCN)NC(=O)[C@H](CC(=O)O)NC1=O [Example 7] (H-CSSL[Nle]DKECHLDIIW-OH; disulfide 1-9) | 3520 nM
8 | CC[C@H](C)[C@H](NC(=O)[C@H](CC(=O)O)NC(=O)[C@H](CC(C)C)NC(=O)[C@H](Cc1c[nH]cn1)NC(=O)[C@@H]1CSSC[C@H](N)C(=O)N[C@@H](CO)C(=O)N[C@H]2CSSC[C@H](NC(=O)[C@H](CCC(=O)O)NC(=O)[C@H](CCCCN)NC(=O)[C@H](CC(=O)O)NC(=O)CNC(=O)[C@H](CC(C)C)NC(=O)[C@H](CO)NC(=O)[C@H](CO)NC2=O)C(=O)N[C@@H](C(C)C)C(=O)N[C@@H](Cc2ccc(O)cc2)C(=O)N[C@@H](Cc2ccccc2)C(=O)N1)C(=O)N[C@H](C(=O)N[C@@H](Cc1c[nH]c2ccccc12)C(=O)O)[C@@H](C)CC [Example 2, (Gly-7)--ET1 derivative] (H-CSCSSLGDKECVYFCHLDIIW-OH; disulfide 1-15, 3-11) | 1.4 nM
9 | CC[C@H](C)[C@H](NC(=O)[C@H](CC(=O)O)NC(=O)[C@H](CC(C)C)NC(=O)[C@H](Cc1c[nH]cn1)NC(=O)[C@@H]1CSSC[C@H](N)C(=O)N[C@@H](CC(C)C)C(=O)N[C@@H](C)C(=O)NCC(=O)N2CCC[C@H]2C(=O)N[C@@H](CC(N)=O)C(=O)NCC(=O)N[C@@H](Cc2ccc(O)cc2)C(=O)N1)C(=O)N[C@H](C(=O)N[C@@H](Cc1c[nH]c2ccccc12)C(=O)O)[C@@H](C)CC [Example 9] (H-CLAGPNGYCHLDIIW-OH; disulfide 1-9) | 7500 nM
10 | CCCC[C@H](NC(=O)[C@H](CC(C)C)NC(=O)[C@H](CO)NC(=O)[C@H](CO)NC(=O)[C@@H](N)CS)C(=O)N[C@@H](CC(=O)O)C(=O)N[C@@H](CCCCN)C(=O)N[C@@H](CCC(=O)O)C(=O)N[C@@H](CS)C(=O)N[C@@H](Cc1c[nH]cn1)C(=O)N[C@@H](CC(C)C)C(=O)N[C@@H](CC(=O)O)C(=O)N[C@H](C(=O)N[C@H](C(=O)N[C@@H](Cc1c[nH]c2ccccc12)C(=O)O)[C@@H](C)CC)[C@@H](C)CC [Example 8] (H-CSSL[Nle]DKECHLDIIW-OH) | 5350 nM
